Assay results from publication PMC10458458, “Characterization of Anticancer Effects of the Analogs of DJ4, a Novel Selective Inhibitor of ROCK and MRCK Kinases” (Pharmaceuticals, 2023).

Assays:
[1] = system: MDA-MB-231 breast cancer cells; experiment: Caspase 3/7 assay (Muse); assay type: cell-based, human; details: MDA-MB-231, 2.5 µM, 48 h (DMSO 6.2)
Protocol: Figure 8 DJ4 analogs induce cell cycle arrest and apoptotic cell death in MDA-MB-231 breast cancer cells. (A) DJ4 analogs induce cell cycle arrest in MDA-MB-231 breast cancer cells. To study the cell cycle arrest by DJ4 analogs, serum-starved cell cycle-synchronized MDA-MB-231 cells were treated with 2.5 µM concentration of each compound for 24 h and stained with propidium iodide. Treatment with all the analogs, except DJ-Morpholine, induced significant arrest of cells in G2/M phase of cell cycle. (B) Apoptotic cell death by DJ4 analogs was evaluated by measuring caspase 3/7 activation in breast cancer cells. Cells were treated with 2.5 µM concentration of each compound for 48 h and incubated with fluorescent dye. All the compounds except DJ-Morpholine induced significant apoptotic cell death. TEXT PRINTED IN THE PICTURE: (A) DMSO: G1 : 48.40%; S : 44%; G2/M: 7.60% | (A) DJ4: G1 : 27.41%; S : 38.58%; G2/M: 34.01% | (A) DJ-Allyl: G1 : 15.94%; S : 55.51%; G2/M: 28.54% | (A) DJE4: G1 : 19.14%; S : 58.48%; G2/M: 22.37% | (A) DJ110: G1 : 19.16%; S : 38.39%; G2/M: 42.51% | (A) DJ-Morpholine: G1 : 43.16%; S : 51.10%; G2/M: 5.74% | (B) DMSO: Dead 3.10 %; Apoptotic/Dead 4.40 %; 6.2; 1.75 % Apoptotic | (B) DJ4: Dead 5.45 %; Apoptotic/Dead 36.80 %; 52.9; 41.65 % Live; 16.10 % Apoptotic | (B) DJ-Allyl: Dead 3.05 %; Apoptotic/Dead 9.90 %; 18.1; 78.90 % Live; 8.15 % Apoptotic | (B) DJE4: Dead 1.85 %; Apoptotic/Dead 8.15 %; 13.4; 84.75 % Live; 5.25 % Apoptotic | (B) DJ110: Dead 9.05 %; Apoptotic/Dead 56.60 %; 64.4; 26.60 % Live; 7.75 % Apoptotic | (B) DJ-Morpholine: Dead 1.90 %; Apoptotic/Dead 5.00 %; 8.0; 90.10 % Live; 3.00 % Apoptotic DOUBTS OF THE COPYIST ABOUT THIS PICTURE: Panel A: the print is very small and blurred, so 3, 5, 6, 8 and 9 cannot be told apart with certainty in any of its values / A, DMSO: G1 48.40% or 46.40%; S 44% (a decimal part may be hidden); G2/M 7.60% or 7.80% / A, DJ4: G1 27.41%; S 38.58% or 38.98%; G2/M 34.01% uncertain / A, DJ-Allyl: G1 15.94%; S 55.51% or 53.51%; G2/M 28.54% or 26.54% uncertain / A, DJE4: G1 19.14%; S 58.48% or 58.46%; G2/M 22.37% uncertain / A, DJ110: G1 19.16% or 19.18%; S 38.39% or 38.33%; G2/M 42.51% uncertain / A, DJ-Morpholine: G1 43.16%; S 51.10%; G2/M 5.74% uncertain / B, DMSO, Live: the value is hidden by data points (only '.75 %' can be read, perhaps 90.75 or 89.75), so it is left out / B, DJ4, Live: partly hidden by data points, 41.65 is the best reading / B, DJ-Allyl, Live: partly hidden by data points, 78.90 or 76.90 / B, DJE4, Live: partly hidden by data points, 84.75 or 64.75 / B, DJ110, Live: partly hidden by data points, 26.60 or 28.60 / B, DJ-Morpholine, Live: partly hidden by data points, 90.10 or 20.10 / B: the large bold numbers (6.2, 52.9, 18.1, 13.4, 64.4, 8.0) are printed with no measure or unit
To determine whether the active analogs induce apoptotic cell death similar to the DJ4 parent compound, we treated MDA-MB-231 breast cancer cells with 2.5 µM concentration of all the analogs for 48 h (Figure 8). The cells were then analyzed for activation of caspase 3/7 (a marker for apoptotic cell death) and propidium iodide (a marker of cell membrane integrity) using the Muse^TM (EMD Millipore) two color bench-top flow cytometer. […]
To examine whether the selected compounds induce apoptosis, we treated MDA-MB-231 breast cancer cells with 5 µM of each compound. […] The data were quantified by using FlowJo software (version 10).

[2] = target: T1, MRCKβ (Homo sapiens, UniProt Q9Y5S2); experiment: Cell-free biochemical kinase activity assay (pMYPT1 immunoblot); details: 1 µM
T1 construct: purchased Invitrogen
T1 sequence (Q9Y5S2 whole entry): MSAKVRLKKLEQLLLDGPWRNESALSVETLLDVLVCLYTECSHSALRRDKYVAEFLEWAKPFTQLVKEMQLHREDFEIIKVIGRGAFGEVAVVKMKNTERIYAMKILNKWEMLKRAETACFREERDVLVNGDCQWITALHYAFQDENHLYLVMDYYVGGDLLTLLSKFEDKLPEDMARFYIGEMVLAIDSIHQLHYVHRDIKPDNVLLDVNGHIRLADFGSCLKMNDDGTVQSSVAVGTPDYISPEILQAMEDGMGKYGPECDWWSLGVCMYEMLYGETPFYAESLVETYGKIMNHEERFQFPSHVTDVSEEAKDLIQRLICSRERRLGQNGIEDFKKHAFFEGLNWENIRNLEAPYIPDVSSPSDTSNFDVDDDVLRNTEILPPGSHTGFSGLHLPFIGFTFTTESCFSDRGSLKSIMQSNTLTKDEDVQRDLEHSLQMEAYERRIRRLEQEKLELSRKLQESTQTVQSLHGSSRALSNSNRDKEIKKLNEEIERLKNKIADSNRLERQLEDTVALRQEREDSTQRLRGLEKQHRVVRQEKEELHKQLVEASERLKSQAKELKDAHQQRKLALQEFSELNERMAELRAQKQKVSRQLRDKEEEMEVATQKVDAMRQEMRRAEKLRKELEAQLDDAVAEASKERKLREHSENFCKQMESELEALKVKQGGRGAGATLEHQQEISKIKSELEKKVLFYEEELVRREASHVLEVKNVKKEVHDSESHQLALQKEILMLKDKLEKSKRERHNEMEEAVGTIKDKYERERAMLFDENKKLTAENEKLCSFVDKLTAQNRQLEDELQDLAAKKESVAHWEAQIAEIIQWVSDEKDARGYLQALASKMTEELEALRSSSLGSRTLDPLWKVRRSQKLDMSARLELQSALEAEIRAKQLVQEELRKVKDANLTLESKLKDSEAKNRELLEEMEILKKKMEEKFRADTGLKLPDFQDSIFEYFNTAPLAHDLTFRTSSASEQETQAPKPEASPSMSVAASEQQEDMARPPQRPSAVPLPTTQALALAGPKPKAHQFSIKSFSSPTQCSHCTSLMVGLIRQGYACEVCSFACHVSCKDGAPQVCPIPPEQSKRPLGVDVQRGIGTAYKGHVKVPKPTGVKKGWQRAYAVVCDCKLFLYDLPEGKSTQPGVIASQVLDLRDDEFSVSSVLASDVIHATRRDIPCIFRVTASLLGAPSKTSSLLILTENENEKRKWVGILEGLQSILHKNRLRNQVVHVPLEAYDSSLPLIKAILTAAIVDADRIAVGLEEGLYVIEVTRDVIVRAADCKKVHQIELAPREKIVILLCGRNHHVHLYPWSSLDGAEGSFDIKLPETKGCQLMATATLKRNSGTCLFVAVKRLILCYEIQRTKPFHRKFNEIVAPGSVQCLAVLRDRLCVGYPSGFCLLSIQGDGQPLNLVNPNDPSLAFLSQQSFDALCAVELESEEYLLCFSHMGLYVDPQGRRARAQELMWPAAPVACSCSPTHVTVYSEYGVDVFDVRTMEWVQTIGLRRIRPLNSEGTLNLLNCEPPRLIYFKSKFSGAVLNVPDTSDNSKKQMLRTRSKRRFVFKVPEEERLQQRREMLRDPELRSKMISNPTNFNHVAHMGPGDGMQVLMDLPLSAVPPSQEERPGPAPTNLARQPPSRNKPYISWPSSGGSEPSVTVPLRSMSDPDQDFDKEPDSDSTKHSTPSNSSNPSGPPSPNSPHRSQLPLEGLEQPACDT
Protocol: (§1) Cell-free biochemical kinase inhibitory activity of these compounds was evaluated at 1 µM concentration using the previously described ROCK1 kinase activity assay. Among the 27 analogs, we identified four analogs (DJ110, DJ-Allyl, DJE4, and DJ-Morpholine) with >50% inhibition of MYPT1 phosphorylation (Supplementary Figure S1). These four compounds were selected for further evaluation at 1 µM and 0.1 µM for their in vitro inhibitory activity against ROCK1, ROCK2, MRCKα, and MRCKβ kinases.
(§2) Cell-free biochemical kinase activity was assayed using published procedures. Briefly, recombinant ROCK1 (9.48 nM) or ROCK2 (8.26 nM; Invitrogen, Waltham, MA, USA) was incubated in the presence of 0.1 and 1 µM concentrations of DJ4 analogs or DMSO in ROCK-assay buffer at room temperature (RT) for 10 min. MRCKα and MRCKβ (2 ng/µL; Invitrogen) assays were performed in the assay buffer recommended by the manufacturer. Recombinant MYPT1 (20 ng/µL; Millipore) and ATP (5 µM) were added to initiate the reaction. The reaction was incubated at 30 °C for 20 min. Western blot analysis of these samples for phosphorylation of MYPT1 was performed as per the method mentioned in our earlier publication. Briefly, an equal amount of sample was loaded on Bis-Tris gel (Novex, Life Technologies, Carlsbad, CA, USA), proteins were electrophoresed and transferred to PVDF membranes. The blots were probed with anti-pMYPT1 (Thr696) or anti-MYPT1 (Millipore) antibodies.

[3] = target: ROCK1 (Homo sapiens, UniProt Q13464); experiment: as above; set-up: purchased Invitrogen; details: for inhibition at 1 µM: cell-free screen of 27 analogs, read-out: inhibition of MYPT1 phosphorylation
ROCK1, sequence (Q13464 whole entry): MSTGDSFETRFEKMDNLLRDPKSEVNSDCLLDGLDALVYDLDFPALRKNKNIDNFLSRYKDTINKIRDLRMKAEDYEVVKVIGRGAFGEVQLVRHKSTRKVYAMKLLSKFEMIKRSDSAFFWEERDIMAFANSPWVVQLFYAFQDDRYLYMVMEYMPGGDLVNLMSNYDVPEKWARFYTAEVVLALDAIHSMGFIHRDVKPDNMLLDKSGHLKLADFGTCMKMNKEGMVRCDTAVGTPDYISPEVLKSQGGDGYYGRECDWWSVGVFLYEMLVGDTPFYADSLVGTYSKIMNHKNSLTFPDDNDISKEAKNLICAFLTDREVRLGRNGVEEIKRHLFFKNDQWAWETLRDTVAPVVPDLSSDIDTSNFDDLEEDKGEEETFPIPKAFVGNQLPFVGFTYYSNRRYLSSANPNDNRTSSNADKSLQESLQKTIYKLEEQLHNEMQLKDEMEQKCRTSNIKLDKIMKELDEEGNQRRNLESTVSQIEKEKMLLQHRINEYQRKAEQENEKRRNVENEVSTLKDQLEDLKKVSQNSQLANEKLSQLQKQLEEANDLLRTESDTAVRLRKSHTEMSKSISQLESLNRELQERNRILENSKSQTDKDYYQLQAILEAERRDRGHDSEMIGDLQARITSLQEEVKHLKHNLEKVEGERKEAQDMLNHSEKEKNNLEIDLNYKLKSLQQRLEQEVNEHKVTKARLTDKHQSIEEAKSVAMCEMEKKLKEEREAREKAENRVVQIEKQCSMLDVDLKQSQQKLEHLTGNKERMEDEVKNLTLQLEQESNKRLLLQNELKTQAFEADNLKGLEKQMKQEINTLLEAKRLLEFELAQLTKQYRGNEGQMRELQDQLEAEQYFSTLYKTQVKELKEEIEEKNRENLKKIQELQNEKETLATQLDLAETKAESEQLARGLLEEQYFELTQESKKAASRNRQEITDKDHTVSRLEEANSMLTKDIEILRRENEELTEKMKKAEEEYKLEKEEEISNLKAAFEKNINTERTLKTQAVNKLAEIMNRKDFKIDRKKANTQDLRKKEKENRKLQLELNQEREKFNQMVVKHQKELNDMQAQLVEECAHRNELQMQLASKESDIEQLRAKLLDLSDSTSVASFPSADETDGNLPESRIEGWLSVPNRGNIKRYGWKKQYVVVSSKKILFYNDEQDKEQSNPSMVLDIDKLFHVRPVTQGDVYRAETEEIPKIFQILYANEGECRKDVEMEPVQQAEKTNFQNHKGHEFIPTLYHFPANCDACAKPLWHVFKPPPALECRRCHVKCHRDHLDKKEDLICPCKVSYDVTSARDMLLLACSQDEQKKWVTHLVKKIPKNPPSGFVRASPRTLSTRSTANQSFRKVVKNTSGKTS
Protocol: as §1, §2
Figure S1. Screening of analogs in the in vitro kinase activity assay to identify […]
Kinase inhibitory activity of the 27 compounds was evaluated by in vitro cell-free biochemical kinase activity assay. The compounds (1 µM) were incubated with recombinant ROCK1 (9.48nM), recombinant MYPT1 (a kinase substrate, 84 nM) and ATP (25 µM). Phosphorylation status of the substrate (pMYPT1) was analyzed to study the […]

| SMILES | apoptosis (Q2 + Q3), caspase 3/7 [1] [%] | inhibition of kinase activity (qualitative immunoblot) [2] | inhibition of kinase activity (qualitative immunoblot) ([3]; ROCK1, 0.1 µM) | inhibition of kinase activity (qualitative immunoblot) ([3]; ROCK1, 1 µM) | inhibition at 1 µM ([3]; ROCK1, 1 µM) [%] |
| --- | --- | --- | --- | --- | --- |
| O=C1N/C(=N\CCc2ccccc2)S/C1=C/c1c[nH]c2ncccc12 [DJ4] | 52.9 | significantly inhibit | ineffective | significantly inhibit |  |
| O=C1N/C(=N\Cc2ccccc2)S/C1=C/c1c[nH]c2ncccc12 [DJ110] | 64.4 | significantly inhibit | significantly inhibited | significantly inhibit | > 50 |
| C=CC/N=C1\NC(=O)/C(=C\c2c[nH]c3ncccc23)S1 [DJ-Allyl] | 18.1 | minimal inhibition |  | almost completely inhibited | > 50 |
| O=C1N/C(=N\CCN2CCOCC2)S/C1=C/c1c[nH]c2ncccc12 [DJ-Morpholine] | 8 | minimal inhibition |  | almost completely inhibited | > 50 |
| CC/N=C1\NC(=O)/C(=C\c2c[nH]c3ncccc23)S1 [DJE4] | 13.4 | minimal inhibition |  | almost completely inhibited | > 50 |
